# pIC50: −log10 of the molar value. Where two headings read alike, the source gives them in different places.
# Legend:
# FGFR3 = target: T1, FGFR3 (Homo sapiens, UniProt P22607); experiment: FGFR3 kinase activity inhibition assay (LanthaScreen TR-FRET); assay type: biochemical; conditions: for IC50: FGFR3 kinase, TR-FRET, read-out: IC50 (nM) FGFR3; for Selectivity (X) FGFR1/FGFR3: ratio of IC50 FGFR1/FGFR3, selectivity towards FGFR3
# T1 construct: FGFR3's cytoplasmic domain [436-806 (terminal) amino acids]; purchased Carna 08-135
# Outline: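 Read-out is TR-FRET, with the 520 nm/495 nm emission ratio normalised to DMSO (max) and enzyme-free (min) controls. Enzyme was the FGFR3 cytoplasmic domain, residues 436-806. EDTA (10 mM) stopped the reaction, followed by 60 min at 22 °C before reading.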
# FGFR1 = target: T2, FGFR1 (Homo sapiens, UniProt P11362); experiment: FGFR1 kinase activity inhibition assay (LanthaScreen TR-FRET); assay type: biochemical; conditions: for IC50: FGFR1 kinase, TR-FRET, read-out: IC50 (nM) FGFR1
# T2 construct: cytoplasmic domain [398-822 (terminal) amino acids]; purchased Carna 08-133
# Experimental: PV3552) and 10 mM EDTA were added to quench the kinase reaction, and incubated at 22°C for 60 minutes. • ⑤ The reaction was measured using a PerkinElmer EnVision multimode plate reader through TR-FRET dual wavelength detection. • 1. The RFU values were copied from the Envision program. • 2. The ratio of RFU 520nm/RFU 495nm was calculated. • 3. The value of the ratio was converted to a percentage inhibition value. % Inhibition = (max-data)/(max-min) × 100 [formula] "Min" represents the ratio of the control without enzyme, "max" represents the ratio of the DMSO control, and "data" represents the ratio of the compounds in wells with different concentrations. […] "Top" refers to the maximum response, "Bottom" refers to the minimum response, and "HillSlope" refers to the slope of the curve.
# T1 sequence (P22607 436-806): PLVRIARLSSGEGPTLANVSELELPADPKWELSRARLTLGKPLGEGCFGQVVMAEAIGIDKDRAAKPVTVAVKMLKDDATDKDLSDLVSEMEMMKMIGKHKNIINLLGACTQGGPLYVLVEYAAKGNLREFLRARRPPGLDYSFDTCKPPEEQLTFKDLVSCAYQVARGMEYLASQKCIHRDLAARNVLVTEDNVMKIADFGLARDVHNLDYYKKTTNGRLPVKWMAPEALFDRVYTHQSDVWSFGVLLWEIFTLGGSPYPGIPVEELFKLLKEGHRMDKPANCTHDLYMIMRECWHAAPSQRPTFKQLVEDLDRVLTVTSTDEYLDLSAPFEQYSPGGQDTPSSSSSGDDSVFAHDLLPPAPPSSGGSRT
# T2 sequence (P11362 398-822): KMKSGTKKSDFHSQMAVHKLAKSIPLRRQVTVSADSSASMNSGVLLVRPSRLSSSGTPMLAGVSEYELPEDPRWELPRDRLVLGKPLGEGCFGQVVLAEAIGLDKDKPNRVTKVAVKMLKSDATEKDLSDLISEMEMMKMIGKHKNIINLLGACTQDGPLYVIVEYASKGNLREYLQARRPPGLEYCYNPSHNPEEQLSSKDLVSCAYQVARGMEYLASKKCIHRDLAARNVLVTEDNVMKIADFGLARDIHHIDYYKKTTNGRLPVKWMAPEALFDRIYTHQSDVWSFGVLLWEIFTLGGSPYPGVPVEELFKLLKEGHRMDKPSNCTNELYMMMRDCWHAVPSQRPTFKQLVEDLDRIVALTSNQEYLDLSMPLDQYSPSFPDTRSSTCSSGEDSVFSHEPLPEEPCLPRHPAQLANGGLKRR
smiles,measurement,setting,value
"COCCN(C)CCn1cc(-c2n[nH]c3c(F)cc(O[C@H](C)c4c(Cl)cncc4Cl)cc23)cn1 [Example 20, (R)-2-(4-(5-(1-(3,5-dichloropyridin-4-yl)ethoxy)-7-fluoro-1H-indazol-3-yl)-1H-pyrazol-1-yl)-N-(2-methoxyethyl)-N-methylethan-1-amine]",IC50,FGFR3,< 1 nM
same,Selectivity (X) FGFR1/FGFR3,FGFR3,A (A represents 1 ≤ multiple X<20)
same,IC50,FGFR1,1 to 10 nM
"CC(Oc1ccc2[nH]nc(-c3cnn(CCS(=O)(=O)N(C)C)c3)c2c1)c1cccc2nccnc12 (stereo not shown) [Example 160, N,N-dimethyl-2-(4-(5-(1-(quinoxalin-5-yl)ethoxy)-1H-indazol-3-yl)-1H-pyrazol-1-yl)ethane-1-sulfonamide]",IC50,FGFR3,1 to 10 nM
same,Selectivity (X) FGFR1/FGFR3,FGFR3,B (B represents 20 ≤ multiple X<50)
same,IC50,FGFR1,> 100 nM
"CC(Oc1ccc2[nH]nc(-c3cnn(C4CN(C(=O)CC#N)C4)c3)c2c1)c1cccc2nccnc12 (stereo not shown) [Example 180, 3-oxo-3-(3-(4-(5-(1-(quinoxalin-5-yl)ethoxy)-1H-indazol-3-yl)-1H-pyrazol-1-yl)azetidin-1-yl)propionitrile]",IC50,FGFR3,1 to 10 nM
same,Selectivity (X) FGFR1/FGFR3,FGFR3,A (A represents 1 ≤ multiple X<20)
same,IC50,FGFR1,1 to 10 nM
CC(C)c1cc2nccnc2c(C(C)Oc2ccc3[nH]nc(-c4cnn(C)c4)c3c2)n1 (stereo not shown) [Example 237],IC50,FGFR3,1 to 10 nM
same,Selectivity (X) FGFR1/FGFR3,FGFR3,B (B represents 20 ≤ multiple X<50)
same,IC50,FGFR1,10 to 100 nM
"CC(Oc1ccc2[nH]nc(-c3cnn(C4CN(C(=O)C(C)(C)N)C4)c3)c2c1)c1cc(Cl)cc2nccnc12 (stereo not shown) [Example 210, 2-amino-1-(3-(4-(5-(1-(7-chloroquinoxalin-5-yl)ethoxy)-1H-indazol-3-yl)-1-pyrazol-1-yl)azetidin-1-yl)-2-methylpropan-1-one]",IC50,FGFR3,< 1 nM
same,Selectivity (X) FGFR1/FGFR3,FGFR3,A (A represents 1 ≤ multiple X<20)
same,IC50,FGFR1,1 to 10 nM
"Cc1cc(O[C@H](C)c2c(Cl)cncc2Cl)cc2c(-c3cnn(CC4CC4)c3)n[nH]c12 [Example 26, (R)-3-(1-(cyclopropylmethyl)-1H-pyrazol-4-yl)-5-(1-(3,5-dichloropyridin-4-yl)ethoxy)-7-methyl-1H-indazole]",pIC50,FGFR3,7.00 to 8.00
same,Selectivity (X) FGFR1/FGFR3,FGFR3,B (B represents 20 ≤ multiple X<50)
same,pIC50,FGFR1,< 7.00
"CCCn1cc(-c2n[nH]c3ccc(O[C@H](C)c4c(Cl)cncc4Cl)nc23)cn1 [Example 46, (R)-5-(1-(3,5-dichloropyridin-4-yl)ethoxy)-3-(1-propyl-1H-pyrazol-4-yl)-1H-pyrazolo[4,3-b]pyridine]",IC50,FGFR3,< 1 nM
same,Selectivity (X) FGFR1/FGFR3,FGFR3,B (B represents 20 ≤ multiple X<50)
same,IC50,FGFR1,10 to 100 nM
"CC(Oc1ccc2[nH]nc(-c3cnn(C)c3)c2c1)c1cccc2ncc(N)cc12 (stereo not shown) [Example 147, 5-(1-((3-(1-methyl-1H-pyrazol-4-yl)-1H-indazol-5-yl)oxy)ethyl)qu inoline-3-amine]",IC50,FGFR3,1 to 10 nM
same,Selectivity (X) FGFR1/FGFR3,FGFR3,A (A represents 1 ≤ multiple X<20)
same,IC50,FGFR1,10 to 100 nM
"Cc1cc(C(C)Oc2ccc3[nH]nc(-c4cnn(C5CN(C(=O)C(C)(C)N)C5)c4)c3c2)c2cccnc2c1 (stereo not shown) [Example 215, 2-amino-2-methyl-1-(3-(4-(5-(1-(7-methylquinolin-5-yl)ethoxy)-1H-indazol-3-yl)-1H-pyrazol-1-yl)azetidin-1-yl)propan-1-one]",IC50,FGFR3,< 1 nM
same,Selectivity (X) FGFR1/FGFR3,FGFR3,B (B represents 20 ≤ multiple X<50)
same,IC50,FGFR1,10 to 100 nM
C[C@@H](Oc1cc(C#N)c2[nH]nc(-c3cnn(C)c3)c2c1)c1c(Cl)cncc1Cl [Example 8],IC50,FGFR3,> 100 nM
same,Selectivity (X) FGFR1/FGFR3,FGFR3,A (A represents 1 ≤ multiple X<20)
same,IC50,FGFR1,> 100 nM
"CC(Oc1ccc2[nH]nc(-c3cnn(C4CN(C(=O)CO)C4)c3)c2c1)c1cc(Cl)cc2nccnc12 (stereo not shown) [Example 207, 1-(3-(4-(5-(1-(7-chloroquinoxalin-5-yl)ethoxy)-1H-indazol-3-yl)-1H-pyrazol-1-yl)azetidin-1-yl)-2-hydroxyethan-1-one]",IC50,FGFR3,< 1 nM
same,Selectivity (X) FGFR1/FGFR3,FGFR3,B (B represents 20 ≤ multiple X<50)
same,IC50,FGFR1,10 to 100 nM
"CC(Oc1ccc2[nH]nc(-c3cnn(C4CN(C(=O)C(C)(C)O)C4)c3)c2c1)c1cc(Cl)cc2nccnc12 (stereo not shown) [Example 209, 1-(3-(4-(5-(1-(7-chloroquinoxalin-5-yl)ethoxy)-1H-indazol-3-yl)-1H-pyrazol-1-yl)azetidin-1-yl)-2-hydroxy-2-methylpropan-1-one]",IC50,FGFR3,< 1 nM
same,Selectivity (X) FGFR1/FGFR3,FGFR3,B (B represents 20 ≤ multiple X<50)
same,IC50,FGFR1,10 to 100 nM
"CC(Oc1ccc2[nH]nc(-c3cnn(C)c3)c2c1)c1cc(C#N)cc2nccnc12 (stereo not shown) [Example 141, 8-(1-((3-(1-methyl-1H-pyrazol-4-yl)-1H-indazol-5-yl)oxy)ethyl)qu inoxaline-6-carbonitrile]",IC50,FGFR3,< 1 nM
same,Selectivity (X) FGFR1/FGFR3,FGFR3,B (B represents 20 ≤ multiple X<50)
same,IC50,FGFR1,10 to 100 nM
"C[C@@H](Oc1ccc2[nH]nc(-c3cnn4c3CCC4)c2n1)c1c(Cl)cncc1Cl [Example 45, (R)-5-(1-(3,5-dichloropyridin-4-yl)ethoxy)-3-(5,6-dihydro-4H-pyrrolo[1,2-b]pyrazol-3-yl)-1H-pyrazolo[4,3-b]pyridine]",IC50,FGFR3,10 to 100 nM
same,Selectivity (X) FGFR1/FGFR3,FGFR3,A (A represents 1 ≤ multiple X<20)
same,IC50,FGFR1,> 100 nM
"CCc1ccc2ncccc2c1C(C)Oc1ccc2[nH]nc(-c3cnn(C)c3)c2c1 (stereo not shown) [Example 111, 6-ethyl-5-(1-((3-(1-methyl-1H-pyrazol-4-yl)-1H-indazol-5-yl)oxy)ethyl)qu inoline]",IC50,FGFR3,1 to 10 nM
same,Selectivity (X) FGFR1/FGFR3,FGFR3,A (A represents 1 ≤ multiple X<20)
same,IC50,FGFR1,10 to 100 nM
"CC(Oc1ccc2[nH]nc(-c3ccc(N4CCS(=O)(=O)CC4)nc3)c2c1)c1cccc2nccnc12 (stereo not shown) [Example 149, 4-(5-(5-(1-(quinoxalin-5-yl)ethoxy)-1H-indazol-3-yl)pyridin-2-yl)thiomorpholine1,1-dioxide]",IC50,FGFR3,< 1 nM
same,Selectivity (X) FGFR1/FGFR3,FGFR3,B (B represents 20 ≤ multiple X<50)
same,IC50,FGFR1,10 to 100 nM
"C[C@@H](Oc1ccc2[nH]nc(-c3cnn(CC(=O)N4CCOCC4)c3)c2n1)c1c(Cl)cncc1Cl [Example 63, (R)-2-(4-(5-(1-(3,5-dichloropyridin-4-yl)ethoxy)-1H-pyrazolo[4,3-b]pyridin-3-yl)-1H-pyrazol-1-yl)-1-morpholinoethan-1-one]",IC50,FGFR3,1 to 10 nM
same,Selectivity (X) FGFR1/FGFR3,FGFR3,A (A represents 1 ≤ multiple X<20)
same,IC50,FGFR1,10 to 100 nM
"C[C@@H](Oc1cc(F)c2[nH]nc(-c3cnn(CC(N)=O)c3)c2c1)c1c(Cl)cncc1Cl [Example 16, (R)-2-(4-(5-(1-(3,5-dichloropyridin-4-yl)ethoxy)-7-fluoro-1H-indazol-3-yl)-1H-pyrazol-1-yl)acetamide]",IC50,FGFR3,1 to 10 nM
same,Selectivity (X) FGFR1/FGFR3,FGFR3,A (A represents 1 ≤ multiple X<20)
same,IC50,FGFR1,10 to 100 nM
"CC(Oc1ccc2[nH]nc(-c3cnn(C4CN(C=O)C4)c3)c2c1)c1cc(Cl)cc2nccnc12 (stereo not shown) [Example 240, 3-(4-(5-(1-(7-chloroquinoxalin-5-yl)ethoxy)-1H-indazol-3-yl)-1H-pyrazol-1-yl)azetidine-1-carbaldehyde]",IC50,FGFR3,< 1 nM
same,Selectivity (X) FGFR1/FGFR3,FGFR3,B (B represents 20 ≤ multiple X<50)
same,IC50,FGFR1,10 to 100 nM
"CC(Oc1ccc2[nH]nc(-c3cnn(CCCS(C)(=O)=O)c3)c2c1)c1cc(Cl)cc2nccnc12 (stereo not shown) [Example 220, 7-chloro-5-(1-((3-(1-(3-(methylsulfonyl)propyl)-1H-pyrazol-4-yl)-1H-indazol-5-yl)oxy)ethyl)quinox aline]",IC50,FGFR3,< 1 nM
same,Selectivity (X) FGFR1/FGFR3,FGFR3,C (C represents 50 ≤ multiple X<100)
same,IC50,FGFR1,10 to 100 nM
"C[C@@H](Oc1ccc2[nH]nc(-c3cnn(C4CCOCC4)c3)c2n1)c1c(Cl)cncc1Cl [Example 34, (R)-5-(1-(3,5-dichloropyridin-4-yl)ethoxy)-3-(1-(tetrahydro-2H-pyran-4-yl)-1H-pyrazol-4-yl)1H-pyrazolo[4,3-b]pyridine]",IC50,FGFR3,1 to 10 nM
same,Selectivity (X) FGFR1/FGFR3,FGFR3,A (A represents 1 ≤ multiple X<20)
same,IC50,FGFR1,1 to 10 nM
"C[C@@H](Oc1ccc2[nH]nc(-c3cnn(CCN4CCCC4=O)c3)c2n1)c1c(Cl)cncc1Cl [Example 64, (R)-1-(2-(4-(5-(1-(3,5-dichloropyridin-4-yl)ethoxy)-1H-pyrazolo[4,3-b]pyridin-3-yl)-1H-pyrazol-1-yl)ethyl)pyrrolidin-2-one]",IC50,FGFR3,1 to 10 nM
same,Selectivity (X) FGFR1/FGFR3,FGFR3,A (A represents 1 ≤ multiple X<20)
same,IC50,FGFR1,10 to 100 nM
"CC(Oc1ccc2[nH]nc(-c3cnn(C)c3)c2c1)c1cccn2ncc(C#N)c12 (stereo not shown) [Example 186, 4-(1-((3-(1-methyl-1H-pyrazol-4-yl)-1H-indazol-5-yl)oxy)ethyl)py razolo[1,5-a]pyridine-3-carbonitrile]",IC50,FGFR3,< 1 nM
same,Selectivity (X) FGFR1/FGFR3,FGFR3,A (A represents 1 ≤ multiple X<20)
same,Selectivity (X) FGFR4/FGFR3,"FGFR3; ratio of IC50 FGFR4/FGFR3, selectivity towards FGFR3",A (A represents 1 ≤ multiple X<20)
same,IC50,FGFR1,1 to 10 nM
"CC(Oc1ccc2[nH]nc(-c3cnn(C4CC(S(C)(=O)=O)C4)c3)c2c1)c1cccc2nccnc12 (stereo not shown) [Example 229, 5-(1-((3-(1-(3-(methylsulfonyl)cyclobutyl)-1H-pyrazol-4-yl)-1H-indazol-5-yl)oxy)ethyl)quinoxaline]",IC50,FGFR3,< 1 nM
same,Selectivity (X) FGFR1/FGFR3,FGFR3,B (B represents 20 ≤ multiple X<50)
same,IC50,FGFR1,10 to 100 nM
